Reference: US5093320A, “Novel peptides inhibiting the maturation of t-lymphocytes and the activity of macrophages, pharmaceutical compositions containing them and process for preparing same” (priority 1989, dated 1992)
Read-outs that look alike come from different tables or passages of the source. Positions of bridges follow the written chain, without caps; N, C: chain ends. Residues, ends and D or L forms follow the SMILES beside them. Chains are numbered I, II in the order given.

Columns and labels:
resting macrophages = type: in vivo, CFLP (LATI) mice; settings: mice
Experimental: The phagocytating capacity of resting macrophage cells was investigated on mice [J. Immunopharmacol. 4, 265 (1982-1983)]. […] After bleeding the animals, their peritonea were washed with 8 ml of PBS buffer solution (phosphate buffered saline, pH=7.2) each containing 10 IU of heparin. The cell suspension washed out from the peritoneum was made free of the erythrocytes by shocking with distilled water, then washed 3 times with PBS buffer solution. The sedimentation between two washings was achieved by centrifuging at 1000 rpm for 5 minutes. The concentration of each cell suspension was adjusted to 10^6 cell/ml and the suspension was settled for 30 minutes in a Boyden-chamber at 37° C. in an atmosphere containing 5% of carbon dioxide. Over the macrophages adhered to the glass wall, opsonized yeast was layered. After removing the non-phagocytated particles, those incorporated by the macrophages were counted in each cell. In Table 3, the percentage of decrease in the count of phagocytated yeast cells is given in relation to the macrophages isolated from the untreated animals as control.

[1] = test system: late hypersensitive (DTH) response; type: in vivo, CFLP (LATI) mice; settings: mice sensitized with oxazolone
Experimental: This test was carried out on male CFLP (LATI) mice weighing 25 to 30 g. At the beginning of the experiment, the mice were treated with a 3% solution of oxazolone in anhydrous ethanol by applying 20 μl of solution each on both ears and forepaws. […] The controls were treated only with saline. On day 10 of the experiment, 20 μl of an 2.5% olive oil solution of oxazolone were smeared on each ear of the animals. The thickness of the ears was twice measured, i.e. before and 24 hours after the administration of the antigen. The thickness was measured on both ears in the middle of the ear-lobes with an accuracy of 0.01 mm. The change was compared with the control group. The data concerning the suppression of the development of a DTH response are given as percentage values in Table 4.

[2] = test system: primary antibody production; assay: Effect on the primary antibody production in newborn rats (haemagglutinin titre); type: in vivo, Wistar (LATI) rats; settings: 1 mg/kg i.p. within 12 hours after birth, haemagglutinin titre on day 7 following immunization with sheep erythrocytes
Experimental: This study is based on the phenomenon of agglutination. A specific antiserum adheres to the surface of the antigen forming large granules which settle rapidly (agglutinate).
Newborn Wistar (LATI) rats were intraperitoneally (i.p.) treated with an 1 mg/kg dose of the test substance within 12 hours after birth. On the 14th day, the animals were i.p. immunized by 0.5 ml of an 1% suspension of sheep erythrocytes. On day 7 following the immunization, blood was taken retroorbitally, after 30 minutes the sera were separated by centrifuging and the haemagglutinin titre was determined according to the method of Takatsy [Acta Microbiol. Acad. Sci. Hung. 3, 191 (1955)]. From the mixed sera (50 μl) of two rats, halving dilutions were prepared in 12 steps. Each sample was given 25 /ul of a 2% suspension of sheep erythroxytes The mixture was incubated at 37° C. for one hour to evaluate the agglutination. The data are summarized in Table 2 which show the suppressing (inhibitory) effect of the compounds on the primary antibody production as a percentage value in relation to the untreated animals. Immunostimulating substances show just the opposite effect in this test.

antibody-producing cells = assay: Effect on the antibody-producing cells in newborn rats (plaque-forming cell count of splenocytes); type: in vivo, Wistar (LATI) rats; settings: 1 mg/kg i.p. within 12 hours of birth, immunized day 14 with sheep erythrocytes, splenocytes 7 days later, vs untreated control
Experimental: This investigation was carried out with splenocytes obtained from newborn rats according to the method of Canningham (Handbook of Experimental Immunology, Ed. D. M. Weir, Vol. 2., Blackwell, Oxford-London, page 285, 1978). Twelve Wistar (LATI) rats arising from a single litter were intraperitoneally (i.p.) treated with 7.5 μg of test substance in a dose of 1 mg/kg within 12 hours of their birth. On the 14th day after birth, the animals were i.p. immunized by 0.5 ml of an 1% suspension of sheep erythrocytes, then bled by decapitation after 7 days. From the splenocytes obtained from the animals, a homogeneous suspension was prepared using sheep erythrocyte suspension and complement which was then put into a chamber suitable for obtaining a monocellular layer. The chambers closed with paraffin were incubated at 37° C. for 45 minutes. Around the antibody-producing splenocytes, lytic areas, the so-called plaques, were formed. Under the effect of treatment with the suppressing substances, the number of the plaque-forming cells (PFC) was decreased. The data summarized in Table 1 illustrate this percentage decrease calculated on the basis of the cells obtained from the untreated control animals.

[3] = therapeutic dose does not significantly differ from the toxic one; cited from earlier work
[4] = 1 mg/kg s.c. daily for 7 days, count of phagocytated yeast cells vs untreated animals
[5] = 1 mg/kg i.p. on day 7, ear thickness 24 hours after antigen on day 10, vs saline control

SMILES: N=C(N)NCCC[C@H](N)C(=O)N[C@@H](CCCCN)C(=O)N[C@@H](CC(=O)O)C(=O)N[C@@H](CSSC[C@H](NC(=O)[C@H](CC(=O)O)NC(=O)[C@H](CCCCN)NC(=O)[C@@H](N)CCCNC(=N)N)C(N)=O)C(N)=O [(12)] (I: H-RKDC-NH2 / II: H-RKDC-NH2; disulfide I:4-II:4)
- Change in the phagocytating capacity of resting macrophages, Change % (resting macrophages; [4]): -40.1%
- Suppression of the DTH response, Suppression % [1, 5]: 35.3%
- Effect on the primary antibody production, Change in relation to the untreated control % [2]: -10.7%

SMILES: CC(C)C[C@H](NC(=O)[C@H](CCCCN)NC(=O)[C@H](CO)NC(=O)[C@@H](N)CCCCN)C(=O)O [(13), Lys-Ser-Lys-Leu] (H-KSKL-OH)
- Suppression of the DTH response, Suppression % [1, 5]: 28.2%

SMILES: CC(C)C[C@H](NC(=O)[C@H](CCCCN)NC(=O)[C@@H](N)CO)C(=O)O [(14), Ser-Lys-Leu] (H-Ser-Lys-Leu-OH)
- Change in the phagocytating capacity of resting macrophages, Change % (resting macrophages; [4]): -14.0%
- Suppression of the DTH response, Suppression % [1, 5]: 22.7%

SMILES: C[C@@H](O)[C@H](NC(=O)[C@H](CO)NC(=O)[C@H](CO)NC(=O)[C@@H](N)CO)C(=O)O [(15), Ser-Ser-Ser-Thr] (H-SSST-OH)
- Suppression of the DTH response, Suppression % [1, 5]: 18.0%

SMILES: C[C@@H](O)[C@H](NC(=O)[C@H](CCC(=O)O)NC(=O)[C@@H](N)CCCCN)C(=O)O [(16), Lys-Glu-Thr] (H-Lys-Glu-Thr-OH)
- Suppression of the antibody production, Change % (number of plaque-forming cells) (antibody-producing cells): -36.8%
- Suppression of the DTH response, Suppression % [1, 5]: 27.5%

SMILES: C[C@@H](O)[C@H](NC(=O)[C@H](CCC(=O)O)NC(=O)[C@@H](NC(=O)[C@@H](N)CCCCN)[C@@H](C)O)C(=O)O [(17), Lys-Thr-Glu-Thr] (H-KTET-OH)
- Change in the phagocytating capacity of resting macrophages, Change % (resting macrophages; [4]): -17.5%
- Suppression of the antibody production, Change % (number of plaque-forming cells) (antibody-producing cells): -23.2%
- Suppression of the DTH response, Suppression % [1, 5]: 35.5%

SMILES: CC(C)C[C@H](NC(=O)[C@H](CCCCN)NC(=O)[C@@H]1CCCN1)C(=O)N[C@H](C(=O)O)[C@@H](C)O [(18), Pro-Lys-Leu-Thr] (H-PKLT-OH)
- Change in the phagocytating capacity of resting macrophages, Change % (resting macrophages; [4]): -11.7%
- Suppression of the antibody production, Change % (number of plaque-forming cells) (antibody-producing cells): -19.4%

SMILES: C[C@@H](O)[C@H](NC(=O)[C@H](CCCCN)NC(=O)[C@@H](N)CCCCN)C(=O)N[C@@H](CCC(=O)O)C(=O)O [(19), Lys-Lys-Thr-Glu] (H-KKTE-OH)
- Change in the phagocytating capacity of resting macrophages, Change % (resting macrophages; [4]): -18.6%
- Suppression of the antibody production, Change % (number of plaque-forming cells) (antibody-producing cells): -22.9%
- Effect on the primary antibody production, Change in relation to the untreated control % [2]: -10.8%

SMILES: O=P1(N(CCCl)CCCl)NCCCO1 (stereo not drawn) [Cyclophosphamide, 2-[-bis(2-chloroethyl)amino]-tetrahydro-2H-1,3,2-oxazaphosphorine-2-oxide, reference compound]
- Change in the phagocytating capacity of resting macrophages, Change % (resting macrophages; 150 mg/kg i.p. dose): -75.0%
- Suppression of the DTH response, Suppression % ([1]; 150 mg/kg i.p. dose): 72%
- therapeutic index [3]: below 10

SMILES: Cn1cnc([N+](=O)[O-])c1Sc1ncnc2nc[nH]c12 [azathioprin, 6-(1-methyl-4-nitro-5-imidazolylthio)purine]
- therapeutic index [3]: below 10
